From US20110044938A1 (NYCOMED GMBH, priority 2006, published 2011)

Tests used:
[1] = system: RKO (RKOp27) human colon adenocarcinoma cells; experiment: Alamar Blue cell viability assay, anti-proliferative/cytotoxic activity on proliferating RKO subclones; format: cell-based; settings: RKOp27, 72 h, RKO p27 uninduced (proliferating) cells, value = class bound given in Table A, read-out: −logIC50 RKO p27 uninduced (proliferating) (converted)
In short: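 RKOp27 subclones (5000 cells/well) were exposed 24 h after seeding to semi-log compound dilutions in DMEM with 10% FCS, in quadruplicate, for 72 h at 37 °C. Viability was read by Alamar Blue fluorescence (544/590 nm) relative to untreated cells (1% DMSO medium). IC50 came from concentration-effect curves and is reported as −log IC50 [mol/l].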

[2] = system: subclones of RKO colon adenocarcinoma cells (RKOp27 or RKOp21) arrested by Ponasterone A; experiment: Alamar Blue cell viability assay, cell cycle specific mode of action: cells arrested by ectopic p27Kip1 induced by Ponasterone A versus proliferating cells; format: cell-based; settings: Homo sapiens, RKO p27 induced (arrested) cells, 10 μM Ponasterone A, 72 hours, value = class bound given in Table A, read-out: −logIC50 RKO p27 induced (arrested) (converted)
In short: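 RKOp27 or RKOp21 cells, 15000/well in DMEM/10% FCS, either arrested by p27Kip1 induced with 10 μM Ponasterone A or proliferating without inducer; compound added after 24 h, 72 h at 37° C. Alamar Blue fluorescence (544/590 nm), viability as % of untreated cells; −log IC50 reported.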

CCOc1ccccc1CCC(=O)Nc1sc2c(c1C#N)CCC(OC(=O)NCc1cn(C)cn1)C2 (centres unmarked) [Example 168, (1-Methyl-1H-imidazol-4-ylmethyl)-carbamic acid 3-cyano-2-[3-(2-ethoxy-phenyl)-propanoylamino]-4,5,6,7-tetrahydro-benzo[b]thiophen-6-yl ester]
IC50 [1]: ≤ 501 nM
IC50 [2]: ≥ 10000 nM

CC(CC(=O)Nc1sc2c(c1C#N)CCC(OC(=O)NC(C)c1ccnn1C)C2)c1ccccc1 (centres unmarked) [Example 299, [1-(2-Methyl-2H-pyrazol-3-yl)-ethyl]-carbamic acid 3-cyano-2-(3-phenyl-butanoylamino)-4,5,6,7-tetrahydro-benzo[b]thiophen-6-yl ester]
IC50 [1]: ≤ 501 nM
IC50 [2]: ≥ 50100 nM

COc1cccc(C(C)CC(=O)Nc2sc3c(c2C#N)CCC(COC(=O)NCc2ccnn2C)C3)c1 (centres unmarked) [Example 332, (2-Methyl-2H-pyrazol-3-ylmethyl)-carbamic acid 3-cyano-2-[3-(3-methoxy-phenyl)-butanoylamino]-4,5,6,7-tetrahydro-benzo[b] thiophen-6-ylmethyl ester]
IC50 [1]: 501 to 2000 nM
IC50 [2]: ≥ 50100 nM

CCn1nccc1CNC(=O)OC1CCc2c(sc(NC(=O)/C=C/c3cccnc3)c2C#N)C1 (centres unmarked) [Example 69, (2-Ethyl-2H-pyrazol-3-ylmethyl)-carbamic acid 3-cyano-2-((E)-3-pyridin-3-yl-allanoylamino)-4,5,6,7-tetrahydro-benzo[b]thiophen-6-yl ester]
IC50 [1]: ≤ 501 nM
IC50 [2]: ≥ 100000 nM

COc1cccc(C(C)CC(=O)Nc2sc3c(c2C#N)CCC(OC(=O)NC2CCOCC2)C3)c1 (centres unmarked) [Example 271, (Tetrahydro-pyran-4-yl)-carbamic acid 3-cyano-2-[3-(3-methoxy-phenyl)-butanoylamino]-4,5,6,7-tetrahydro-benzo[b] thiophen-6-yl ester]
IC50 [1]: 501 to 2000 nM
IC50 [2]: ≥ 100000 nM

COc1cccc(C(C)CC(=O)Nc2sc3c(c2C#N)CCC(OC(=O)NCc2cn(C)nc2C)C3)c1 (centres unmarked) [Example 276, (1,3-Dimethyl-1H-pyrazol-4-ylmethyl)-carbamic acid 3-cyano-2-[3-(3-methoxy-phenyl)-butanoylamino]-4,5,6,7-tetrahydro-benzo[b]thiophen-6-yl ester]
IC50 [1]: ≤ 501 nM
IC50 [2]: ≥ 100000 nM

Cc1cc(CNC(=O)OCC2CCc3c(sc(NC(=O)CC(C)c4cccnc4)c3C#N)C2)no1 (centres unmarked) [Example 282, (5-Methyl-isoxazol-3-ylmethyl)-carbamic acid 3-cyano-2-(3-pyridin-3-yl-butanoylamino)-4,5,6,7-tetrahydro-benzo[b]thiophen-6-ylmethyl ester]
IC50 [1]: ≤ 501 nM
IC50 [2]: ≥ 100000 nM

CCOc1ccccc1CCC(=O)Nc1sc2c(c1C#N)CCC(COC(=O)N1CCCC1)C2 (centres unmarked) [Example 201, Pyrrolidine-1-carboxylic acid 3-cyano-2-[3-(2-ethoxy-phenyl)-propanoylamino]-4,5,6,7-tetrahydro-benzo[b]thiophen-6-ylmethyl ester]
IC50 [1]: ≤ 501 nM
IC50 [2]: ≥ 100000 nM

COc1cccc(C(C)CC(=O)Nc2sc3c(c2C#N)CCC(COC(=O)NCCc2cccnc2)C3)c1 (centres unmarked) [Example 327, (2-Pyridin-3-yl-ethyl)-carbamic acid 3-cyano-2-[3-(3-methoxy-phenyl)-butanoylamino]-4,5,6,7-tetrahydro-benzo[b]thiophen-6-ylmethyl ester]
IC50 [1]: 501 to 2000 nM
IC50 [2]: ≥ 50100 nM

CCOc1ccccc1CCC(=O)Nc1sc2c(c1C#N)CCC(OC(=O)NCc1nccn1C)C2 (centres unmarked) [Example 173, (1-Methyl-1H-imidazol-2-ylmethyl)-carbamic acid 3-cyano-2-[3-(2-ethoxy-phenyl)-propanoylamino]-4,5,6,7-tetrahydro-benzo[b]thiophen-6-yl ester]
IC50 [1]: ≤ 501 nM
IC50 [2]: ≥ 10000 nM

COc1cccc(CCC(=O)Nc2sc3c(c2C#N)CCC(OC(=O)NCCn2ccnc2)C3)c1 (centres unmarked) [Example 263, (2-Imidazol-1-yl-ethyl)-carbamic acid 3-cyano-2-[3-(3-methoxy-phenyl)-propanoylamino]-4,5,6,7-tetrahydro-benzo[b]thiophen-6-yl ester]
IC50 [1]: ≤ 501 nM
IC50 [2]: ≥ 50100 nM

CC(CC(=O)Nc1sc2c(c1C#N)CCC(COC(=O)NCc1ccnn1C)C2)c1ccccc1 (centres unmarked) [Example 313, (2-Methyl-2H-pyrazol-3-ylmethyl)-carbamic acid 3-cyano-2-(3-phenyl-butanoylamino)-4,5,6,7-tetrahydro-benzo[b] thiophen-6-ylmethyl ester]
IC50 [1]: ≤ 501 nM
IC50 [2]: ≥ 50100 nM

CCOc1ccccc1CCC(=O)Nc1sc2c(c1C#N)CCC(OC(=O)NCc1cccnc1)C2 (centres unmarked) [Example 165, Pyridin-3-ylmethyl-carbamic acid 3-cyano-2-[3-(2-ethoxy-phenyl)-propanoylamino]-4,5,6,7-tetrahydro-benzo[b]thiophen-6-yl ester]
IC50 [1]: ≤ 501 nM
IC50 [2]: ≥ 100000 nM

Cc1ccncc1/C=C/C(=O)Nc1sc2c(c1C#N)CCC(COC(=O)N1CCC[C@H]1CO)C2 (stereo partly drawn) [Example 135, 2-(S)-(Hydroxymethyl) pyrrolidine-1-carbamic acid 3-cyano-2-[(E)-3-(4-methyl-pyridin-3-yl)-allanoylamino]-4,5,6,7-tetrahydro-benzo[b]thiophen-6-ylmethyl ester]
IC50 [1]: 501 to 2000 nM
IC50 [2]: ≥ 100000 nM

N#Cc1c(NC(=O)/C=C/c2cccnc2)sc2c1CC[C@@H](COC(=O)N1CCCC1)C2 [Example 68b, Pyrrolidine-1-carboxylic acid (R)-3-cyano-2-((E)-3-pyridin-3-yl-allanoylamino)-4,5,6,7-tetrahydro-benzo[b]thiophen-6-ylmethyl ester]
IC50 [1]: ≤ 501 nM
IC50 [2]: ≥ 100000 nM

Cc1nn(C)cc1CNC(=O)OC1CCc2c(sc(NC(=O)CC(C)c3ccccc3)c2C#N)C1 (centres unmarked) [Example 301, (1,3-Dimethyl-1H-pyrazol-4-ylmethyl)-carbamic acid 3-cyano-2-(3-phenyl-butanoylamino)-4,5,6,7-tetrahydro-benzo[b]thiophen-6-yl ester]
IC50 [1]: ≤ 501 nM
IC50 [2]: ≥ 50100 nM

COc1cccc(C(C)CC(=O)Nc2sc3c(c2C#N)CCC(COC(=O)NCc2cc(C)on2)C3)c1 (centres unmarked) [Example 334, (5-Methyl-isoxazol-3-ylmethyl)-carbamic acid 3-cyano-2-[3-(3-methoxy-phenyl)-butanoylamino]-4,5,6,7-tetrahydro-benzo[b]thiophen-6-ylmethyl ester]
IC50 [1]: ≤ 501 nM
IC50 [2]: ≥ 50100 nM

Cn1ccnc1CNC(=O)OCC1CCc2c(sc(NC(=O)/C=C/c3cccnc3)c2C#N)C1 (centres unmarked) [Example 45, (1-Methyl-1H-imidazol-2-ylmethyl)-carbamic acid 3-cyano-2-((E)-3-pyridin-3-yl-allanoylamino)-4,5,6,7-tetrahydro-benzo[b]thiophen-6-ylmethyl ester]
IC50 [1]: 501 to 2000 nM
IC50 [2]: ≥ 100000 nM

CNC(=O)OCC1CCc2c(sc(NC(=O)/C=C/c3cccnc3)c2C#N)C1 (centres unmarked) [Example 16, Methyl-carbamic acid 3-cyano-2-((E)-3-pyridin-3-yl-allanoylamino)-4,5,6,7-tetrahydro-benzo[b]thiophen-6-ylmethyl ester]
IC50 [1]: ≤ 501 nM
IC50 [2]: ≥ 100000 nM

N#Cc1c(NC(=O)/C=C/c2cccnc2)sc2c1CCC(OC(=O)N1CC[C@@H](O)C1)C2 (stereo partly drawn) [Example 147, (R)-3-Hydroxy-pyrrolidine-1-carboxylic acid 3-cyano-2-((E)-3-pyridin-3-yl-allanoylamino)-4,5,6,7-tetrahydro-benzo[b]thiophen-6-yl ester]
IC50 [1]: 501 to 2000 nM
IC50 [2]: ≥ 100000 nM

N#Cc1c(NC(=O)/C=C/c2cccnc2)sc2c1CC[C@H](COC(=O)N1CC(O)C1)C2 [Example 73a, 3-Hydroxy-azetidine-1 - carboxylic acid (S)-3-cyano-2-((E)-3-pyridin-3-yl-allanoylamino)-4,5,6,7-tetrahydro-benzo[b]thiophen-6-ylmethyl ester]
IC50 [1]: ≤ 501 nM
IC50 [2]: ≥ 100000 nM

CCOc1ccccc1CCC(=O)Nc1sc2c(c1C#N)CCC(COC(=O)OCc1nccs1)C2 (centres unmarked) [Example 203, Carbonic acid 3-cyano-2-[3-(2-ethoxy-phenyl)-propanoylamino]-4,5,6,7-tetrahydro-benzo[b]thiophen-6-ylmethyl ester thiazol-2-ylmethyl ester]
IC50 [1]: ≤ 501 nM
IC50 [2]: ≥ 100000 nM

COc1cccc(CCC(=O)Nc2sc3c(c2C#N)CCC(COC(=O)NCc2cc(C)no2)C3)c1 (centres unmarked) [Example 244, (3-Methyl-isoxazol-5-ylmethyl)-carbamic acid 3-cyano-2-[3-(3-methoxy-phenyl)-propanoylamino]-4,5,6,7-tetrahydro-benzo[b]thiophen-6-ylmethyl ester]
IC50 [1]: ≤ 501 nM
IC50 [2]: ≥ 100000 nM

CCOc1ccccc1CCC(=O)Nc1sc2c(c1C#N)CCC(OC(=O)NCc1ccncc1)C2 (centres unmarked) [Example 171, Pyridin-4-ylmethyl-carbamic acid 3-cyano-2-[3-(2-ethoxy-phenyl)-propanoylamino]-4,5,6,7-tetrahydro-benzo[b]thiophen-6-yl ester]
IC50 [1]: ≤ 501 nM
IC50 [2]: ≥ 50100 nM

COC(=O)[C@@H]1CCCN1C(=O)OC1CCc2c(sc(NC(=O)/C=C/c3cccnc3)c2C#N)C1 (stereo partly drawn) [Example 81, 2-(S)-Pyrrolidine-1,2-dicarboxylic acid 1-[3-cyano-2-((E)-3-pyridin-3-yl-allanoylamino)-4,5,6,7-tetrahydro-benzo[b]thiophen-6-yl] ester 2-methyl ester]
IC50 [1]: 501 to 2000 nM
IC50 [2]: ≥ 100000 nM
